Laboratory results reported in PMC3758303 (PLoS ONE, 2013).

Assays:
[1] = system: genome-length HCV-RNA (1B-4 strain of genotype 1b) replication in HuH-7-derived 1B-4R cells; assay: 1B-4R RL assay; assay type: cell-based; details: Hepatitis C virus, 1B-4R assay, HuH-7, HCV strain 1B-4, 72 hrs
Experimental: (§1) RSc and D7 cells were derived from the cell lines HuH-7 and Li23, respectively, were cultured as described previously, [29]. HuH-7-derived OR6 [13], AH1R [30], and 1B-4R [Ikeda et al., submitted] cells harboring genome-length HCV-RNA and HuH-7-derived polyclonal sOR [31], and RSc-JRN/35B [Ikeda et al., submitted] cells harboring an HCV subgenomic replicon were cultured with medium in the presence of G418 (0.3 mg/ml; Geneticin, Invitrogen, Carlsbad, CA) as described previously. Li23-derived ORL8 [20], ORL11 [20], 1B-4RL [Ikeda et al., submitted], and KAH5RL [Ikeda et al., submitted] cells harboring genome-length HCV-RNA were maintained with medium in the presence of G418 (0.3 mg/ml) as described previously. Li23-derived polyclonal sORL8 and sORL11 cells harboring an HCV replicon, which were established by the transfection of ORN/3-5B/QR,KE,SR RNA into the cured OL8 and OL11 cells, respectively, were also cultured with medium in the presence of G418 (0.3 mg/ml) as described previously. Cured cells, from which the HCV-RNA had been eliminated by IFN treatment, were also maintained with medium in the absence of G418 as described previously. […] Therefore, when HCV-RNA is excluded from the cells or when its level is decreased, the cells are killed in the presence of G418. […]
(§2) The SI value of each reagent was determined by dividing the CC50 value by the EC50 value.

[2] = system: genome-length HCV-RNA (AH1 strain of genotype 1b) replication in HuH-7-derived AH1R cells; assay: AH1R RL assay; assay type: cell-based; details: Hepatitis C virus, HuH-7, HCV strain AH1, 72 hrs
Experimental: as §1, §2

[3] = WST-1 cell proliferation assay, ORL8 cells; assay type: cell-based; details: human
Experimental: (§3) The WST-1 cell proliferation assay was performed as described previously. Briefly, The cells were plated onto 96-well plates (1×10^3 cells per well) in triplicate and then treated with each reagent at several concentrations for 72 hrs. After treatment, the cells were subjected to the WST-1 cell proliferation assay (Takara Bio, Otsu, Japan) according to the manufacturer’s protocol. This assay is based on the enzymatic cleavage of the tetrazolium salt WST-1 to formazan by cellular mitochondrial dehydrogenases present in viable cells. Therefore, there are […] the value of the WST-1 assay becomes zero. The experiments were performed at least in triplicate. From the assay results, the 50% cytotoxic concentration (CC50) of each reagent was determined.

[4] = WST-1 cell proliferation assay, 1B-4RL cells; assay type: cell-based; details: human
Experimental: as §3

[5] = WST-1 cell proliferation assay, KAH5RL cells; assay type: cell-based; details: human
Experimental: as §3

[6] = system: authentic 9.6 kb HCV-RNA replication in HCV-O/RLGE cells; assay: Quantitative RT-PCR of authentic HCV-RNA in HCV-O/RLGE cells; assay type: cell-based; details: Hepatitis C virus, 72 hrs, real-time LightCycler PCR
Experimental: as §2
The RNAs from HCV-RNA replicating cell lines were prepared with an RNeasy extraction kit (Qiagen). The quantitative RT-PCR analysis for HCV-RNA was performed using a real-time LightCycler PCR (Roche Diagnostics, Basel, Switzerland) as described previously, [20].
The genome-length HCV-RNA used in the assay systems described above contains three non-natural elements: RL, neomycin phosphotransferase, and an internal ribosomal entry site of encephalomyocarditis virus. To exclude the possibility that the anti-HCV activity of N-89 or N-251 was due to the inhibition of these three exogenous elements, we examined the anti-HCV activities of N-89 and N-251 using the authentic 9.6 kb HCV-RNA-replicating HCV-O/RLGE cells, which were developed by the introduction of in vitro synthesized HCV-O/RLGE RNA (Fig. 2A) into OR6c cured cells.
Figure 2 Characterization of anti-HCV activities of N-89 and N-251. (A) Schematic gene organization of authentic HCV-RNA (HCV-O/RLGE). The positions of four adaptive mutations - Q1112R, P1115L, E1202G, and K1609E - are indicated by a black star. […] The relative value (%) calculated at each point, when the level in non-treated cells was assigned as 100%, is presented here. Data are expressed as the means±standard deviation of triplicate assays. […]

[7] = system: subgenomic HCV-JFH-1 replicon in RSc-JRN/35B cells; assay: RSc-JRN/35B RL assay; assay type: cell-based, hepatitis C virus
Experimental: RSc and D7 cells were derived from the cell lines HuH-7 and Li23, respectively, were cultured as described previously, [29]. HuH-7-derived OR6 [13], AH1R [30], and 1B-4R [Ikeda et al., submitted] cells harboring genome-length HCV-RNA and HuH-7-derived polyclonal sOR [31], and RSc-JRN/35B [Ikeda et al., submitted] cells harboring an HCV subgenomic replicon were cultured with medium in the presence of G418 (0.3 mg/ml; Geneticin, Invitrogen, Carlsbad, CA) as described previously. Li23-derived ORL8 [20], ORL11 [20], 1B-4RL [Ikeda et al., submitted], and KAH5RL [Ikeda et al., submitted] cells harboring genome-length HCV-RNA were maintained with medium in the presence of G418 (0.3 mg/ml) as described previously. Li23-derived polyclonal sORL8 and sORL11 cells harboring an HCV replicon, which were established by the transfection of ORN/3-5B/QR,KE,SR RNA into the cured OL8 and OL11 cells, respectively, were also cultured with medium in the presence of G418 (0.3 mg/ml) as described previously. […]
We next examined whether N-89 and N-251 worked in an HCV production system using HCV-JFH-1 strain (genotype 2a). […] To clarify whether anti-HCV activity depends on the difference of genotype or assay model, we evaluated the activities of N-89 and N-251 using RSc-JRN/35B [Ikeda et al., submitted] cells harboring a subgenomic HCV-JFH-1 replicon as an additional assay.

[8] = system: HCV-RNA replication in ORL8 cells; assay: Effect of VE on anti-HCV activity, ORL8 RL assay; assay type: cell-based, hepatitis C virus; details: 72 hrs
Experimental: After treatment, an RL assay of harvested ORL8 cell samples was performed. (B, D, and F) The ratio of RL activity in the presence of VE to the RL activity in the absence of VE. The above ratio was calculated from the data of (A, C, and E). […] (G) Western blot analysis was performed as described in Fig. 1B.
The ORL8 cells were treated with N-89 or IFN-α, and then RL assays were performed at 2 to 72 hrs after the treatment. The relative value (%) calculated at each time point, when the luciferase activity of non-treated cells at 24 hrs was assigned as 100%, is shown. Data are expressed as the means±standard deviation of triplicate assays. […] To evaluate this possibility, we examined the effect of VE on N-89 at the EC90 level in the ORL8 assay.

Molecule `OCCCCCCC1COOC2(CCCCCCCCCCC2)OOC1` [N-251, 6-(1,2,6,7-tetraoxaspiro[7.11]nonadec-4-yl)hexan-1-ol] has an EC50 [1] of 980 nM, an EC50 [2] of 140 nM and a CC50 at 72 h [3] of 1300 nM. The CC50 at 72 h [4] was 1900 nM, the CC50 at 72 h [5] was 2800 nM and the EC50 [6] was 1600 nM. For the same molecule, the “anti-HCV activity, subgenomic HCV-JFH-1 replicon” value [7] was “did not show any anti-HCV activities” and the “VE 10μM(+) / VE 10μM(-) ratio of RL activity” value ([8]; reagent at expected EC90, Fig. 5D (control 2.3)) was 13.
Molecule `C1CCCCCC2(CCCCC1)OOCCCOO2` [N-89, 1,2,6,7-Tetraoxaspiro[7.11]nonadecane] has an EC50 [1] of 420 nM, an EC50 [2] of 25 nM and a CC50 at 72 h [3] of 2300 nM. For the same molecule, the CC50 at 72 h [4] was 2400 nM, the CC50 at 72 h [5] was 2500 nM and the EC50 [6] was 2000 nM. For the same molecule, the “anti-HCV activity, subgenomic HCV-JFH-1 replicon” value [7] was “did not show any anti-HCV activities” and the “VE 10μM(+) / VE 10μM(-) ratio of RL activity” value ([8]; reagent at expected EC90, Fig. 5B (control 3.0)) was 16.
